# Test results taken from PubChem BioAssay AID248 (DTP/NCI, 2004).
# Several values for one entry are separate records, joined by “and”; a condition that tells them apart may be missing. Identical values can stand only once. Toxic doses and inconclusive results are not listed.
# Test system: L1210 leukemia ip in BDF1 mice, survival T/C
# Assay: NCI In Vivo Anticancer Drug Screen. Data for tumor model L1210 Leukemia (intraperitoneal) in B6D2F1 (BDF1) mice
# Details: higher = longer survival
# How it was run: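 Read-out is survival time, reported as the treated-group measurement over the vehicle-control measurement.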
compound,measurement,setting,value
C[n+]1c2ccccc2c(Nc2ccc(NS(=O)(=O)CCCCN=C(N)N)cc2)c2ccc(N)cc21,T/C,"endpoint: mean survival time, dose: 0.5 mg/kg/injection, schedule: Q03HX008 (ip), vehicle: water",167 % of control
same,T/C,"endpoint: mean survival time, dose: 1.5 mg/kg/injection, schedule: Q01DX009 (ip), vehicle: water",186 % of control
same,T/C,"endpoint: mean survival time, dose: 2.0 mg/kg/injection, schedule: Q03HX008 (ip), vehicle: water",160 % of control
same,T/C,"endpoint: mean survival time, dose: 3.0 mg/kg/injection, schedule: Q01DX009 (ip), vehicle: water",160 % of control and 212 % of control
same,T/C,"endpoint: mean survival time, dose: 3.0 mg/kg/injection, schedule: Q03HX008 (ip), vehicle: water",240 % of control
same,T/C,"endpoint: mean survival time, dose: 3.12 mg/kg/injection, schedule: Q04DX003 (ip), vehicle: water",191 % of control
same,T/C,"endpoint: mean survival time, dose: 6.0 mg/kg/injection, schedule: Q01DX009 (ip), vehicle: water",176 % of control and 218 % of control
same,T/C,"endpoint: mean survival time, dose: 6.0 mg/kg/injection, schedule: Q03HX008 (ip), vehicle: water",327 % of control
same,T/C,"endpoint: mean survival time, dose: 6.25 mg/kg/injection, schedule: Q04DX003 (ip), vehicle: water",152 % of control and 170 % of control
same,T/C,"endpoint: mean survival time, dose: 12.0 mg/kg/injection, schedule: Q01DX009 (ip), vehicle: water",269 % of control
same,T/C,"endpoint: mean survival time, dose: 12.5 mg/kg/injection, schedule: Q01DX001 (ip), vehicle: water",186 % of control
same,T/C,"endpoint: mean survival time, dose: 12.5 mg/kg/injection, schedule: Q04DX003 (ip), vehicle: water",171 % of control and 202 % of control
same,T/C,"endpoint: mean survival time, dose: 25.0 mg/kg/injection, schedule: Q01DX001 (ip), vehicle: water",207 % of control
same,T/C,"endpoint: mean survival time, dose: 25.0 mg/kg/injection, schedule: Q04DX003 (ip), vehicle: water",194 % of control and 225 % of control
same,T/C,"endpoint: median survival time, dose: 3.0 mg/kg/injection, schedule: Q01DX009 (oral), vehicle: water",97 % of control
same,T/C,"endpoint: median survival time, dose: 6.0 mg/kg/injection, schedule: Q01DX009 (oral), vehicle: water",103 % of control
same,T/C,"endpoint: median survival time, dose: 6.0 mg/kg/injection, schedule: Q01DX009 (sc), vehicle: water",166 % of control
same,T/C,"endpoint: median survival time, dose: 12.0 mg/kg/injection, schedule: Q01DX009 (oral), vehicle: water",98 % of control
same,T/C,"endpoint: median survival time, dose: 12.0 mg/kg/injection, schedule: Q01DX009 (sc), vehicle: water",163 % of control
same,T/C,"endpoint: median survival time, dose: 24.0 mg/kg/injection, schedule: Q01DX009 (oral), vehicle: water",94 % of control
same,T/C,"endpoint: median survival time, dose: 48.0 mg/kg/injection, schedule: Q01DX009 (oral), vehicle: water",95 % of control
C/C=C1/C[C@@H](C)[C@@](C)(O)C(=O)OCC2=CC[N+]3([O-])CC[C@@H](OC1=O)[C@@H]23 (stereo not given in full),T/C,"endpoint: mean survival time, dose: 20.0 mg/kg/injection, schedule: Q01DX015 (ip), vehicle: saline",98 % of control
same,T/C,"endpoint: mean survival time, dose: 30.0 mg/kg/injection, schedule: Q01DX015 (ip), vehicle: saline",96 % of control
same,T/C,"endpoint: mean survival time, dose: 40.0 mg/kg/injection, schedule: Q01DX015 (ip), vehicle: saline",102 % of control
CC(=O)C(C#N)c1ccccc1 (stereo not given),T/C,"endpoint: mean survival time, dose: 25.0 mg/kg/injection, schedule: Q01DX009 (ip), vehicle: Klucel (hydroxypropylcellulose) (HPC)",98 % of control
same,T/C,"endpoint: mean survival time, dose: 25.0 mg/kg/injection, schedule: Q04DX003 (ip), vehicle: Klucel (hydroxypropylcellulose) (HPC)",100 % of control
same,T/C,"endpoint: mean survival time, dose: 50.0 mg/kg/injection, schedule: Q01DX009 (ip), vehicle: Klucel (hydroxypropylcellulose) (HPC)",96 % of control
same,T/C,"endpoint: mean survival time, dose: 50.0 mg/kg/injection, schedule: Q04DX003 (ip), vehicle: Klucel (hydroxypropylcellulose) (HPC)",100 % of control
same,T/C,"endpoint: mean survival time, dose: 100.0 mg/kg/injection, schedule: Q04DX003 (ip), vehicle: Klucel (hydroxypropylcellulose) (HPC)",97 % of control
O=C1Cc2c(Cl)cccc2C(=S)N1,T/C,"endpoint: mean survival time, dose: 100.0 mg/kg/injection, schedule: Q01DX009 (ip), vehicle: saline sonified",95 % of control
same,T/C,"endpoint: mean survival time, dose: 100.0 mg/kg/injection, schedule: Q04DX003 (ip), vehicle: saline with Tween-80",95 % of control
same,T/C,"endpoint: mean survival time, dose: 200.0 mg/kg/injection, schedule: Q01DX009 (ip), vehicle: saline sonified",91 % of control
same,T/C,"endpoint: mean survival time, dose: 200.0 mg/kg/injection, schedule: Q04DX003 (ip), vehicle: saline with Tween-80",93 % of control
same,T/C,"endpoint: mean survival time, dose: 400.0 mg/kg/injection, schedule: Q01DX009 (ip), vehicle: saline sonified",98 % of control
same,T/C,"endpoint: mean survival time, dose: 400.0 mg/kg/injection, schedule: Q04DX003 (ip), vehicle: saline with Tween-80",92 % of control
